How the values were obtained:
Assay in all cases: HTRF/ADP-Glo kinase selectivity panel
Format in all cases: biochemical
Conditions in all cases: 500 nM, read-out: 1D228(%inhibition)@500nM
[1] = target: T1, ABL1 (Homo sapiens, UniProt P00519)
T1 construct: purchased Invitrogen (c-Met, TRKA, TRKB, TRKC)
Experimental: (§1) The compound was serial diluted from 10 mM stock in DMSO, dilute the test compound to 0.1 mM (200 times the specified test concentration). 2 × ATP & Substrate solution and 2 × kinase & Metal solution were prepared using assay buffer; Transfer 25 nL compound to 384 assay plate by Echo 655; After centrifugation, add 2.5 μL 2 × kinase/metal ion solution 384 assay plate, and incubate at 25 °C for 10 min. 2 × XL665 & Antibody solution were prepared with detection buffer; 5 μL of Kinase Detection Reagent was added to the well, and incubated for 60 min at 25 °C; The fluorescence signals of 620 nm (Cryptate) and 665 nm (XL665) were read by microtiter plate reader; […]

[2] = target: T2, ACK (Homo sapiens, UniProt Q07912)
T2 construct: purchased Invitrogen (c-Met, TRKA, TRKB, TRKC)
Experimental: as §1

[3] = target: T3, ALK (Homo sapiens, UniProt Q9UM73)
T3 construct: purchased Invitrogen (c-Met, TRKA, TRKB, TRKC)
Experimental: as §1

[4] = target: T4, AXL (Homo sapiens, UniProt P30530)
T4 construct: purchased Invitrogen (c-Met, TRKA, TRKB, TRKC)
Experimental: as §1

[5] = target: T5, BMX (Homo sapiens, UniProt P51813)
T5 construct: purchased Invitrogen (c-Met, TRKA, TRKB, TRKC)
T5 sequence (P51813 whole entry): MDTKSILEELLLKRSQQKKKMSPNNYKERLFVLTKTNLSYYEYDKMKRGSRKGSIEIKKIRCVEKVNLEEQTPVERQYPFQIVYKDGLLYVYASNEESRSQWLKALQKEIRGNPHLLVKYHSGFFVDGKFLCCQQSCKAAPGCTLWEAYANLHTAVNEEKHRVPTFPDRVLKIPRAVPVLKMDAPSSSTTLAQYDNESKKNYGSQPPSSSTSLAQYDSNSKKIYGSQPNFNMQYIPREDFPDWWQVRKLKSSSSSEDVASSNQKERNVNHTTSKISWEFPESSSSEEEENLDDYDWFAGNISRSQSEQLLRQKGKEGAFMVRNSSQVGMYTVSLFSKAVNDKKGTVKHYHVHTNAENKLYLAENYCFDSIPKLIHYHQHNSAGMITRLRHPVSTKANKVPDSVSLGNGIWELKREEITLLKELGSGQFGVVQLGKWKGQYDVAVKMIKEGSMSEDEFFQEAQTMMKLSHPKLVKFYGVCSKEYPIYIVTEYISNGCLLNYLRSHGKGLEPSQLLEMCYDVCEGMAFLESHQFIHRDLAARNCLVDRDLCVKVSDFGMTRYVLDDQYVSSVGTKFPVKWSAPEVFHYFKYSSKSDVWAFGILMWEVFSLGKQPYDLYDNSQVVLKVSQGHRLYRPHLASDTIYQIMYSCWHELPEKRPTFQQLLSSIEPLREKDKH
Experimental: as §1

[6] = target: T6, BRK (Homo sapiens, UniProt Q13882)
T6 construct: purchased Invitrogen (c-Met, TRKA, TRKB, TRKC)
Experimental: as §1

[7] = target: T7, CSF1R (Homo sapiens, UniProt P07333)
T7 construct: purchased Invitrogen (c-Met, TRKA, TRKB, TRKC)
Experimental: as §1

[8] = target: T8, CSK (Homo sapiens, UniProt P41240)
T8 construct: purchased Invitrogen (c-Met, TRKA, TRKB, TRKC)
Experimental: as §1

[9] = target: T9, EGFR (Homo sapiens, UniProt P00533)
T9 construct: purchased Invitrogen (c-Met, TRKA, TRKB, TRKC)
Experimental: as §1

[10] = target: T10, EGFR T790M L858R (Homo sapiens, UniProt P00533, L858R/T790M)
T10 construct: purchased Invitrogen (c-Met, TRKA, TRKB, TRKC)
Experimental: as §1

[11] = target: T11, EPHA7 (Homo sapiens, UniProt Q15375)
T11 construct: purchased Invitrogen (c-Met, TRKA, TRKB, TRKC)
Experimental: as §1

[12] = target: T12, EPHA8 (Homo sapiens, UniProt P29322)
T12 construct: purchased Invitrogen (c-Met, TRKA, TRKB, TRKC)
Experimental: as §1

[13] = target: T13, EPHB2 (Homo sapiens, UniProt P29323)
T13 construct: purchased Invitrogen (c-Met, TRKA, TRKB, TRKC)
Experimental: as §1

[14] = target: T14, FAK (Homo sapiens, UniProt Q05397)
T14 construct: purchased Invitrogen (c-Met, TRKA, TRKB, TRKC)
Experimental: as §1

[15] = target: T15, FES (Homo sapiens, UniProt P07332)
T15 construct: purchased Invitrogen (c-Met, TRKA, TRKB, TRKC)
Experimental: as §1

[16] = target: T16, FGFR3 (Homo sapiens, UniProt P22607)
T16 construct: purchased Invitrogen (c-Met, TRKA, TRKB, TRKC)
Experimental: as §1

[17] = target: T17, FGFR4 (Homo sapiens, UniProt P22455)
T17 construct: purchased Invitrogen (c-Met, TRKA, TRKB, TRKC)
Experimental: as §1

[18] = target: T18, FLT1 (Homo sapiens, UniProt P17948)
T18 construct: purchased Invitrogen (c-Met, TRKA, TRKB, TRKC)
Experimental: as §1

[19] = target: T19, FLT3 (Homo sapiens, UniProt P36888)
T19 construct: purchased Invitrogen (c-Met, TRKA, TRKB, TRKC)
Experimental: as §1

[20] = target: T20, FRK (Homo sapiens, UniProt P42685)
T20 construct: purchased Invitrogen (c-Met, TRKA, TRKB, TRKC)
Experimental: as §1

[21] = target: T21, HCK (Homo sapiens, UniProt P08631)
T21 construct: purchased Invitrogen (c-Met, TRKA, TRKB, TRKC)
Experimental: as §1

[22] = target: T22, HER2 (Homo sapiens, UniProt P04626)
T22 construct: purchased Invitrogen (c-Met, TRKA, TRKB, TRKC)
Experimental: as §1

[23] = target: T23, ITK (Homo sapiens, UniProt Q08881)
T23 construct: purchased Invitrogen (c-Met, TRKA, TRKB, TRKC)
T23 sequence (Q08881 whole entry): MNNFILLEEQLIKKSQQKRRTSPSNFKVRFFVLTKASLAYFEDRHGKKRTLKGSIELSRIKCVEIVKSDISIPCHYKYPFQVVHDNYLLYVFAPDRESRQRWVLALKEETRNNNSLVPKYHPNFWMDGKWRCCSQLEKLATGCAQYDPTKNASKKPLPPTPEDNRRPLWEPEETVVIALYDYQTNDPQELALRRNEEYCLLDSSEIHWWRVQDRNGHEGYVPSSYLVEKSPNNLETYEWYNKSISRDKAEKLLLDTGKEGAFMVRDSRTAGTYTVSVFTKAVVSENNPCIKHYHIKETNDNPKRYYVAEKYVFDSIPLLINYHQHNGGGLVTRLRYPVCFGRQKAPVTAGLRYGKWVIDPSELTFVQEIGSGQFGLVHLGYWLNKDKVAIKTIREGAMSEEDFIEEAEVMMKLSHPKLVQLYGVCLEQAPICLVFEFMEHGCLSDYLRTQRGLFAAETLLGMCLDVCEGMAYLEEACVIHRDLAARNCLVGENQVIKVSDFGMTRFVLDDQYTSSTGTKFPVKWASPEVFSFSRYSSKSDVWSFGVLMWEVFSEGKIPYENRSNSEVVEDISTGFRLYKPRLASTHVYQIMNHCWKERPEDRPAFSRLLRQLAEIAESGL
Experimental: as §1

[24] = target: T24, JAK2 (Homo sapiens, UniProt O60674)
T24 construct: purchased Invitrogen (c-Met, TRKA, TRKB, TRKC)
Experimental: as §1

[25] = target: T25, KDR (Homo sapiens, UniProt P35968)
T25 construct: purchased Invitrogen (c-Met, TRKA, TRKB, TRKC)
Experimental: as §1

[26] = target: T26, LCK (Homo sapiens, UniProt P06239)
T26 construct: purchased Invitrogen (c-Met, TRKA, TRKB, TRKC)
Experimental: as §1

[27] = target: T27, LYNa (Homo sapiens, UniProt P07948)
T27 construct: purchased Invitrogen (c-Met, TRKA, TRKB, TRKC)
T27 sequence (P07948 whole entry): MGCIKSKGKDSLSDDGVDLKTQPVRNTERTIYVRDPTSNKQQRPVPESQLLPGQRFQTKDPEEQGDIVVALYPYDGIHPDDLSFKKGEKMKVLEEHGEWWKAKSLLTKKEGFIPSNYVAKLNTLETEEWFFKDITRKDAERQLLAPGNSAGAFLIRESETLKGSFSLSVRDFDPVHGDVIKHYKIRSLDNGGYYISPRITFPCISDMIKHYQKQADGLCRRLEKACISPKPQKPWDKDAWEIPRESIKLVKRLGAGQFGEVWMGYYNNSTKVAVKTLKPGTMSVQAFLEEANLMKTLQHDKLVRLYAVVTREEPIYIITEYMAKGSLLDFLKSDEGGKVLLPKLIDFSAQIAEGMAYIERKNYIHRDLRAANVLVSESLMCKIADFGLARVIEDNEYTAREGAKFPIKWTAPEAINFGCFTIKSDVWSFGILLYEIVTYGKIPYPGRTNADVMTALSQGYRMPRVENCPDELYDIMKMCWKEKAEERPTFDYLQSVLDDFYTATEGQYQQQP
Experimental: as §1

[28] = target: T28, LYNb (Homo sapiens, UniProt P07948)
T28 construct: purchased Invitrogen (c-Met, TRKA, TRKB, TRKC)
Experimental: as §1

[29] = target: T29, MUSK (Homo sapiens, UniProt O15146)
T29 construct: purchased Invitrogen (c-Met, TRKA, TRKB, TRKC)
T29 sequence (O15146 24-869): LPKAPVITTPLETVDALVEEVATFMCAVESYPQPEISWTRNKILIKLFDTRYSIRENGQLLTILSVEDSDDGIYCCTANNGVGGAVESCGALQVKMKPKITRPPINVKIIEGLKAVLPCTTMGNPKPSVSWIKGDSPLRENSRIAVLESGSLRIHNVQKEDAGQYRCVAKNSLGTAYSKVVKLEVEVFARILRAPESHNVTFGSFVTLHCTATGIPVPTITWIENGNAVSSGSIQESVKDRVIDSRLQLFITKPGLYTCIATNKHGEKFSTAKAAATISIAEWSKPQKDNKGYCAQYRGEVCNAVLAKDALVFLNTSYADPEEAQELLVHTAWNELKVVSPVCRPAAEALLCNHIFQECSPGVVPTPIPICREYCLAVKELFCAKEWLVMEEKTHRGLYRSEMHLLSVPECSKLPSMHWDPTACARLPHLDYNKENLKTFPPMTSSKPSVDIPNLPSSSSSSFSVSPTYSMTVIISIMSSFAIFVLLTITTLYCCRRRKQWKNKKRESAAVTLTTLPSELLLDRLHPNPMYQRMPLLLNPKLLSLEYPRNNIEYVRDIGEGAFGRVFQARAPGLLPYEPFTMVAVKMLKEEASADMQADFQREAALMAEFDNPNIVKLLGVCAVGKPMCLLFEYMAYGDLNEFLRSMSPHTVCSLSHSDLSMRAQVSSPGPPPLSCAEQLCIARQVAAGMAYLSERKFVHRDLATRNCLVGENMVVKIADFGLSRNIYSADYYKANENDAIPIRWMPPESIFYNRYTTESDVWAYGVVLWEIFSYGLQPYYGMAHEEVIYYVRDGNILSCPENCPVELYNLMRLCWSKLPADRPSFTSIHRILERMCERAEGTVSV
Experimental: as §1

[30] = target: T30, PDGFRβ (Homo sapiens, UniProt P09619)
T30 construct: purchased Invitrogen (c-Met, TRKA, TRKB, TRKC)
Experimental: as §1

[31] = target: T31, PYK2 (Homo sapiens, UniProt Q14289)
T31 construct: purchased Invitrogen (c-Met, TRKA, TRKB, TRKC)
Experimental: as §1

[32] = target: T32, RET (Homo sapiens, UniProt P07949)
T32 construct: purchased Invitrogen (c-Met, TRKA, TRKB, TRKC)
T32 sequence (P07949 29-1114): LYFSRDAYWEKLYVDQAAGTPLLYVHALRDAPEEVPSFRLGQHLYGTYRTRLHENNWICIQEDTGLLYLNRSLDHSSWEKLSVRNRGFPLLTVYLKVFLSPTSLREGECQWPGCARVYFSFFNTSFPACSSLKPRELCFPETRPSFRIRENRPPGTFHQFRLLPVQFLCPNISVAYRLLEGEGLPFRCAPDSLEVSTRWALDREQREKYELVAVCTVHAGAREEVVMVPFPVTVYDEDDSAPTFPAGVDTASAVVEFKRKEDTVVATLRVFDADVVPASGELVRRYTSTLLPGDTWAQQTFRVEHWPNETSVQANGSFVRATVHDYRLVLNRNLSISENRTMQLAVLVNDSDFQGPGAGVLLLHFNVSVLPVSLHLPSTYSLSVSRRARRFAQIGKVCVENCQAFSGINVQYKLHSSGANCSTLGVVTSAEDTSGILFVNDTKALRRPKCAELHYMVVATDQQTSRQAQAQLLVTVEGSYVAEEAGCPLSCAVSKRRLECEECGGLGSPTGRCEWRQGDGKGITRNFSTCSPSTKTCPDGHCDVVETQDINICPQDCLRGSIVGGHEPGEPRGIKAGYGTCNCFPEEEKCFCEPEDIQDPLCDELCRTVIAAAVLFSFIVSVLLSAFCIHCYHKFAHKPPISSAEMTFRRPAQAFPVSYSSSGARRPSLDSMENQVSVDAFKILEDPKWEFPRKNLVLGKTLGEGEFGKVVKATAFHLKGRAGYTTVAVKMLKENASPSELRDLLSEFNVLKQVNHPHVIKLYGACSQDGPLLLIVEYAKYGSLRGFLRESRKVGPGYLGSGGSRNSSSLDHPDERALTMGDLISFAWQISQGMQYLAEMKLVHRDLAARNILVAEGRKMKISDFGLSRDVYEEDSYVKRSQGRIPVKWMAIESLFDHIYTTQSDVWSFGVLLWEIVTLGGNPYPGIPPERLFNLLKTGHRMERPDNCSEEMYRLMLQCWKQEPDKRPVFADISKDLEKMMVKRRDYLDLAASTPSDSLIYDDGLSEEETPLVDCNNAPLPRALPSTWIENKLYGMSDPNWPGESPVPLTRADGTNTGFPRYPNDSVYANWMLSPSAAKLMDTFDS
Experimental: as §1

[33] = target: T33, SRC (Homo sapiens, UniProt P12931)
T33 construct: purchased Invitrogen (c-Met, TRKA, TRKB, TRKC)
Experimental: as §1

[34] = target: T34, SRM (Homo sapiens, UniProt Q9H3Y6)
T34 construct: purchased Invitrogen (c-Met, TRKA, TRKB, TRKC)
T34 sequence (Q9H3Y6 whole entry): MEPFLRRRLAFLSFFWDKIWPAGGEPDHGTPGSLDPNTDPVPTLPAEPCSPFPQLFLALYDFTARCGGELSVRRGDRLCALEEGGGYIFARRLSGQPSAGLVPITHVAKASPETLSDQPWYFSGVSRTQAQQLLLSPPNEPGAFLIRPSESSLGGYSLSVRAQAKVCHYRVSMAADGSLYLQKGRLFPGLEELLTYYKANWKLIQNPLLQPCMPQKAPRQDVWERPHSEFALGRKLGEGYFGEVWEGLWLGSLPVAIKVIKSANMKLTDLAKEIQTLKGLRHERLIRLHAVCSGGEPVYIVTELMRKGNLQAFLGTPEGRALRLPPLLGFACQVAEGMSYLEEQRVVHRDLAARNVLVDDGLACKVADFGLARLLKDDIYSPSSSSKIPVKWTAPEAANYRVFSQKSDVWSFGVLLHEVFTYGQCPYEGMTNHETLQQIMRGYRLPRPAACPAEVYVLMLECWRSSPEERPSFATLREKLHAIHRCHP
Experimental: as §1

[35] = target: T35, TRKA (Homo sapiens, UniProt P04629)
T35 construct: purchased Invitrogen (c-Met, TRKA, TRKB, TRKC)
Experimental: as §1

[36] = target: T36, TRKC (Homo sapiens, UniProt Q16288)
T36 construct: purchased Invitrogen (c-Met, TRKA, TRKB, TRKC)
Experimental: as §1

[37] = target: T37, TXK (Homo sapiens, UniProt P42681)
T37 construct: purchased Invitrogen (c-Met, TRKA, TRKB, TRKC)
Experimental: as §1

[38] = target: T38, TYRO3 (Homo sapiens, UniProt Q06418)
T38 construct: purchased Invitrogen (c-Met, TRKA, TRKB, TRKC)
T38 sequence (Q06418 41-890): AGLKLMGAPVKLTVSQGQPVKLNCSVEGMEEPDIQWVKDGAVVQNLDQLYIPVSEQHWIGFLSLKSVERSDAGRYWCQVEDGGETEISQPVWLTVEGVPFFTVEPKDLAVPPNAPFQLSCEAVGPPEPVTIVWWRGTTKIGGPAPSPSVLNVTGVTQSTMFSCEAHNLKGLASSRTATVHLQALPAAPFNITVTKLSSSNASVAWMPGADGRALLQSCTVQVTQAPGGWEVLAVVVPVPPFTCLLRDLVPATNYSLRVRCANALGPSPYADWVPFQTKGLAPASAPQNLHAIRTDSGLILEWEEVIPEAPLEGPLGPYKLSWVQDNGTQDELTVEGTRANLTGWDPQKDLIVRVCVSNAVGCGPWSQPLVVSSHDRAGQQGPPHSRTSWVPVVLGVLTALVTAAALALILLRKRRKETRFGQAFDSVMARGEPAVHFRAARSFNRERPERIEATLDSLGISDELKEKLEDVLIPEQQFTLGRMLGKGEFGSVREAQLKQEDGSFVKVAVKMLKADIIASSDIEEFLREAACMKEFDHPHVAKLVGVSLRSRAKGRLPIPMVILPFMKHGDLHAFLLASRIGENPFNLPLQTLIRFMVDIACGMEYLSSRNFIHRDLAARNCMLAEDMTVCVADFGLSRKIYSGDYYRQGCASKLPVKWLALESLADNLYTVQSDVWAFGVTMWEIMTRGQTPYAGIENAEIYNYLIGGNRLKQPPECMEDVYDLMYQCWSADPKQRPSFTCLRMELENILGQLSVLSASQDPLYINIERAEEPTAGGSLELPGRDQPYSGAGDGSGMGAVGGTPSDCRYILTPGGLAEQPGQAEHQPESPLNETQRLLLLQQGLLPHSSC
Experimental: as §1

[39] = target: T39, YES (Homo sapiens, UniProt P07947)
T39 construct: purchased Invitrogen (c-Met, TRKA, TRKB, TRKC)
Experimental: as §1

[40] = target: T40, ZAP70 (Homo sapiens, UniProt P43403)
T40 construct: purchased Invitrogen (c-Met, TRKA, TRKB, TRKC)
Experimental: as §1

`[2H][C@@](C)(c1cccc(-c2ncc(OCC3CCN(C)CC3)cn2)c1)n1nc(-c2cccc(C#N)c2)ccc1=O` [1D228] was tested, and the inhibition at 0.5 µM [1] was 6.37%, the inhibition at 0.5 µM [2] was 1.96% and the inhibition at 0.5 µM [3] was 89.5%. For the same compound, the inhibition at 0.5 µM [4] was 89.2%, the inhibition at 0.5 µM [5] was 5.12% and the inhibition at 0.5 µM [6] was 3.19%. For the same compound, the inhibition at 0.5 µM [7] was 3.21%, the inhibition at 0.5 µM [8] was -3.07% and the inhibition at 0.5 µM [9] was 1.17%. It also gave an inhibition at 0.5 µM [10] of 11.1%, an inhibition at 0.5 µM [11] of -1.36% and an inhibition at 0.5 µM [12] of 8.52%. For the same compound, the inhibition at 0.5 µM [13] was -3.54%, the inhibition at 0.5 µM [14] was -9.58% and the inhibition at 0.5 µM [15] was 1.05%. The inhibition at 0.5 µM [16] was 3.05%, the inhibition at 0.5 µM [17] was -0.37% and the inhibition at 0.5 µM [18] was 6%. It also gave an inhibition at 0.5 µM [19] of 17.9%, an inhibition at 0.5 µM [20] of 11.3% and an inhibition at 0.5 µM [21] of -4.06%. For the same compound, the inhibition at 0.5 µM [22] was 8.78%, the inhibition at 0.5 µM [23] was 1.6% and the inhibition at 0.5 µM [24] was 1.82%. The inhibition at 0.5 µM [25] was 5.62%, the inhibition at 0.5 µM [26] was 5.21% and the inhibition at 0.5 µM [27] was 27.3%. For the same compound, the inhibition at 0.5 µM [28] was 5.26%, the inhibition at 0.5 µM [29] was 9.13% and the inhibition at 0.5 µM [30] was -3.95%. It also gave an inhibition at 0.5 µM [31] of 1.14%, an inhibition at 0.5 µM [32] of 12.2% and an inhibition at 0.5 µM [33] of 2.91%. It also gave an inhibition at 0.5 µM [34] of 2.66%, an inhibition at 0.5 µM [35] of 93.6% and an inhibition at 0.5 µM [36] of 99%. It also gave an inhibition at 0.5 µM [37] of 1.29%, an inhibition at 0.5 µM [38] of 4.2% and an inhibition at 0.5 µM [39] of 11.3%. The inhibition at 0.5 µM [40] was -0.66%.

From paper PMC10636171 (Cell Death & Disease, 2023)
